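Results reflect a 48-hour exposure of cells in 96-well plates to compound at five concentrations. TGI denotes the concentration required for complete inhibition of growth.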
Tests used:
Assay in all cases: inhibition of tumour cell growth, NCI panel, 48 h
BT-549 breast = system: BT-549 breast
HCC-2998 colon = system: HCC-2998 colon
HOP-62 NSCLC = system: HOP-62 NSCLC
HT29 colon = system: HT29 colon
MDA-N = system: MDA-N
NCI-H226 lung = system: NCI-H226 lung
NCI-H522 lung = system: NCI-H522 lung
PC-3 prostate = system: PC-3 prostate
SK-MEL-2 melanoma = system: SK-MEL-2 melanoma
SK-MEL-28 melanoma = system: SK-MEL-28 melanoma
SN12C renal = system: SN12C renal
SNB-75 CNS = system: SNB-75 CNS

Structure (SMILES)	TGI (BT-549 breast) [µM]	TGI (HCC-2998 colon) [µM]	TGI (HOP-62 NSCLC) [µM]	TGI (HT29 colon) [µM]	TGI (MDA-N) [µM]	TGI (NCI-H226 lung) [µM]	TGI (NCI-H522 lung) [µM]	TGI (PC-3 prostate) [µM]	TGI (SK-MEL-2 melanoma) [µM]	TGI (SK-MEL-28 melanoma) [µM]	TGI (SN12C renal) [µM]	TGI (SNB-75 CNS) [µM]
Cc1cc(NC2=CC(=O)C(=O)c3ccccc32)no1	13.4	35.2	32.5	28.3	3.34	35.9	34.5	53.9	10.4	31.6	7.1	23
CN(C)C(C1=C(O)C(c2ccccc2)N(c2ccccc2)C1=O)N1CCOCC1 (stereo not drawn)	> 10	> 10	> 10	> 10	> 10	> 10	> 10	> 10	> 10	> 10	> 10	> 10
COc1ccc(N=c2oc3ccccc3cc2C(N)=O)cc1	> 100	> 100	34.8	> 100	> 100	> 100	93.1	> 100	> 100	> 100	> 100	> 100
CCOC(=O)C1(C#N)OC(=O)c2cnccc21 (stereo not drawn)	> 100	> 100		> 100	> 100	> 100	> 100	> 100	> 100	> 100	> 100	> 100
Cc1ccc(CC(Cc2ccccc2C)C(=O)O)c(C(=O)O)c1 (stereo not drawn)	> 100	> 100	> 100	> 100	> 100	> 100	> 100	> 100	> 100	> 100	> 100	> 100
CN=C1Nc2ccccc2C(=O)N2CSCC12 (stereo not drawn)	> 100	> 100	> 100	> 100	> 100	> 100	> 100	> 100	> 100	> 100	> 100	> 100
COc1cc(OC)cc(OCc2nc3cc(C(F)(F)F)ccc3nc2-c2ccccc2)c1	> 100	> 100	> 100	> 100	> 100	> 100	> 100	> 100	> 100	> 100	> 100	> 100
C=CCN(c1cc(OC)c(NC(C)=O)cc1[N+](=O)[O-])S(C)(=O)=O	> 100	> 100	> 100		> 100	> 100	12.5	> 100	> 100	> 100	> 100	> 100
O=C(Nc1ccccc1)c1cc(S(=O)(=O)Nc2n[nH]c(=O)n2-c2ccccc2)c(S)cc1Cl	> 100	> 100		> 100	> 100	> 100	> 100	> 100	> 100	> 100	> 100	> 100
Cc1cc(S(=O)(=O)NC2=NCc3nc4ccccc4n32)c(S)cc1Cl	71.9	35.7			58.1	40.9	> 100	55.6	29.2	> 100	51	60.4
O=C1/C(=C/c2cccc(Cl)c2)CCCc2ccccc21	44.5	32.5	49	30.9	31.9	30.7	32.1	38.3	31.2	33.6	32.3	> 100
Nc1nc(Cl)cc(NCC2(O)CCC2)n1	> 100	> 100	> 100	> 100	> 100	> 100	> 100	> 100	> 100	> 100	> 100	> 100
COc1ccc(C(=O)C#Cc2cn(C3CC(O)C(CO)O3)c(=O)[nH]c2=O)cc1 (stereo not drawn)	40.4	> 100	> 100	> 100	> 100	> 100	24.5	> 100	> 100	50.5	> 100	> 100
COc1ccc2c3c1OC1C(F)C=CC4(O)C(C2)NCCC314 (stereo not drawn)	6.66	12.8	7.13	10.9	11	30.8	2.02	6.92	6.65	10.7	10.3	6.58
CC(/C=C/C(=O)NO)=C\C(C)C(=O)c1ccc(N(C)C)cc1 (stereo not drawn)	> 60.4	< 0.0113	14.6	> 100	11.5	12.9	< 0.0129	10.7	0.778	14.8	0.206	0.234
NC1N=C(c2ccc(Cl)cc2)C2=C(N1)c1ccccc1CC2 (stereo not drawn)	> 100	18.5	> 82.7	28.4	> 100	54.3	36.2	> 100	46.6	> 100	> 100	> 22.7
Cc1ccc(CC2(C(=O)O)Cc3ccc(C)cc3C2)cc1 (stereo not drawn)	> 100	> 100	> 100	> 100	> 100	> 100	> 100	> 100	> 100	> 100	> 100	> 100
CCn1cc2c(=O)n3ncn(-c4ccc(Br)cc4)c3nc2n1	> 100	> 100	> 100	> 100	> 100	> 100	> 100	> 100	> 100	> 100	> 100	45.8
CCN1CCC(O)(c2ccc(Oc3ccc(Cl)cc3)cc2)C(C(=O)c2ccc(Oc3ccc(Cl)cc3)cc2)C1 (stereo not drawn)	29.7	25	21.3	17.7	27	34.5	12	21.3	36.9	58.6	26.9	26.2
Cc1ccc(O)c(C(c2cccc(C(c3cc(C)ccc3O)c3cc(C)ccc3O)c2)c2cc(C)ccc2O)c1	4.11	3.48	4.04	3.16	3.35	3.31	3.03	3.29	4.61	3.46	3.4	3.54
CCc1cccc(C(C)C)c1NC(=O)C(=O)C1C(=O)Nc2ccccc2S1=O (stereo not drawn)	> 100	> 100	> 100	> 100	> 100	> 100	> 100	> 100	> 100	> 100	> 100	> 100
Cc1ccc([N+](=O)[O-])cc1S(=O)(=O)Nc1ccc(C2=NN(S(=O)(=O)c3cc([N+](=O)[O-])ccc3C)C(c3ccccc3)C2)cc1 (stereo not drawn)	57.2	59.8	> 100	> 100	97.3	> 100	50.6	98.8	61.6	> 100	> 100	> 100
CCOC(=O)c1cc(C2CCN(c3ccccc3)C2=O)c(/C(O)=C/C(C)=O)[nH]1 (stereo not drawn)	> 100	> 100	> 100	> 100	> 100	> 100	> 100	> 100	> 100	> 100	> 100	> 100
Cc1ccc(C)n1-c1ccccc1C1C=Cn2c(=O)nnc3c(OC(C)C)c(OC(C)C)c(O)c1c32 (stereo not drawn)	> 100	> 100	> 100	43.6	> 100	53.6	49.6	> 100	> 100	38.1	> 100	> 100
CCOC1OC(COC(=O)C(C)(C)C)C(O)CC1n1cc(C)c(=O)[nH]c1=O (stereo not drawn)	> 100	> 100		> 100	> 100	> 100	> 100	> 100	> 100	> 100	> 100	> 100
CC[C@]12C=CCN3CC[C@@]4(c5cc(N=O)c(OC)cc5N(C)[C@H]4[C@@](O)(C(=O)OC)[C@@H]1OC(C)=O)[C@@H]32	> 100	> 100	> 100	> 100	48.5	> 100	36.5	> 100	41.7	> 100	> 100	> 100
COc1ccc2c(c1)Cc1c(NCCN(C)C)ccc(C(=O)NCCCN(C)CCCNC(=O)c3ccc(NCCN(C)C)c4c3Nc3ccc(OC)cc3C4)c1N2	1.5	0.168	1.02	0.566	0.224	0.241	0.0514	0.838	0.226	1.46	0.624	0.103
CCOC(=O)c1nc2cc(C(F)(F)F)ccc2nc1Oc1ccc(C#N)cc1	> 100	> 100			> 100	> 100	> 100	> 100	> 100	> 100	> 100	> 100

From PubChem BioAssay (NCI)
